In US20220323406A1, “METHODS AND COMPOSITIONS FOR DIFFERENTIATING STEM CELLS” (Massachusetts Institute of Technology, priority 2019, published 2022):

Key:
[1] = test system: ENR+CD organoids (ISC to Paneth cell differentiation); assay: Primary screen: basal (non-stimulated) lysozyme secretion LYZ.NS, 2.5-D 384-well ENR+CD organoid differentiation; format: cell-based, mouse; details: primary screen; for Z.LYZ.NS: standard z score
Source text: (§1) High-throughput screening.

ENR+CD organoids = assay: Primary screen: ATP (CellTiter-Glo 3D, CTG) cell number/viability, 2.5-D 384-well ENR+CD organoids; details: primary screen; for Z.CTG: standard z score;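 as to all read-outs here: compounds given at plating and again on day 3 over a 6-day differentiation from ENR+CV stem-cell-enriched precursors, ATP measured on day 6, plate median as control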
[2] = test system: ENR+CD organoids (ISC to Paneth cell differentiation); assay: Primary screen: CCh-stimulated lysozyme secretion LYZ.S, 2.5-D 384-well ENR+CD organoid differentiation; format: cell-based, mouse; details: primary screen
Source text: as §1

[3] = dose 0.08 uM, FC relative to plate median
[4] = dose 0.40 uM, FC relative to plate median
[5] = dose 2.00 uM, FC relative to plate median
[6] = dose 10.00 uM, FC relative to plate median

Row | SMILES | Dose.FC.LYZ.NS [1, 3] [log2 fold change] | Z.LYZ.NS ([1]; dose 0.08 uM) | Dose.FC.LYZ.NS [1, 4] [log2 fold change] | Z.LYZ.NS ([1]; dose 0.40 uM) | Dose.FC.LYZ.NS [1, 5] [log2 fold change] | Z.LYZ.NS ([1]; dose 2.00 uM) | Dose.FC.LYZ.NS [1, 6] [log2 fold change] | Z.LYZ.NS ([1]; dose 10.00 uM) | Dose.FC.CTG (ENR+CD organoids; [3]) [log2 fold change] | Z.CTG (ENR+CD organoids; dose 0.08 uM) | Dose.FC.CTG (ENR+CD organoids; [4]) [log2 fold change] | Z.CTG (ENR+CD organoids; dose 0.40 uM) | Dose.FC.CTG (ENR+CD organoids; [5]) [log2 fold change] | Z.CTG (ENR+CD organoids; dose 2.00 uM) | Dose.FC.CTG (ENR+CD organoids; [6]) [log2 fold change] | Z.CTG (ENR+CD organoids; dose 10.00 uM) | Dose.FC.LYZ.S [2, 3] [log2 fold change] | Dose.FC.LYZ.S [2, 4] [log2 fold change] | Dose.FC.LYZ.S [2, 5] [log2 fold change] | Dose.FC.LYZ.S [2, 6] [log2 fold change] | further results
1 | C[S+]([O-])c1ccc(-c2nc(-c3ccc(F)cc3)c(-c3ccncc3)[nH]2)cc1 (stereo not drawn) [SB203580] | 0.092 | 0.805 | 0.127 | 1.109 | 0.052 | 0.453 | 0.023 | 0.199 | 0.201 | 0.479 | 0.149 | 0.356 | 0.237 | 0.567 | 0.182 | 0.435 | 0.148 | 0.098 | 0.077 | 0.069 | –
2 | C[C@H](NC(=O)Cc1cc(F)cc(F)c1)C(=O)N[C@@H]1C(=O)N(C)c2ccccc2-c2ccccc21 [YO-01027] | – | – | – | – | – | – | – | – | – | – | – | – | – | – | – | – | – | – | – | – | Dose.FC.LYZ.NS ([1]; dose 0.08 uM): 0.051 log2 fold change; Z.LYZ.NS (standard z score) ([1]; dose 0.08 uM): 0.443; Dose.FC.LYZ.NS ([1]; dose 0.40 uM): 0.085 log2 fold change; Z.LYZ.NS (standard z score) ([1]; dose 0.40 uM): 0.739; Dose.FC.LYZ.NS ([1]; dose 2.00 uM): −0.080 log2 fold change; Z.LYZ.NS (standard z score) ([1]; dose 2.00 uM): −0.699; Dose.FC.LYZ.NS ([1]; dose 10.00 uM): −0.157 log2 fold change; Z.LYZ.NS (standard z score) ([1]; dose 10.00 uM): −1.369; Dose.FC.CTG (ENR+CD organoids; dose 0.08 uM): 0.221 log2 fold change; Z.CTG (standard z score) (ENR+CD organoids; dose 0.08 uM): 0.528; Dose.FC.CTG (ENR+CD organoids; dose 0.40 uM): −0.475 log2 fold change; Z.CTG (standard z score) (ENR+CD organoids; dose 0.40 uM): −1.135; Dose.FC.CTG (ENR+CD organoids; dose 2.00 uM): −0.571 log2 fold change; Z.CTG (standard z score) (ENR+CD organoids; dose 2.00 uM): −1.363; Dose.FC.CTG (ENR+CD organoids; dose 10.00 uM): −1.032 log2 fold change; Z.CTG (standard z score) (ENR+CD organoids; dose 10.00 uM): −2.464; Dose.FC.LYZ.S ([2]; dose 0.08 uM): 0.105 log2 fold change; Dose.FC.LYZ.S ([2]; dose 0.40 uM): −0.058 log2 fold change; Dose.FC.LYZ.S ([2]; dose 2.00 uM): −0.020 log2 fold change; Dose.FC.LYZ.S ([2]; dose 10.00 uM): −0.184 log2 fold change
3 | O=C1NC(=O)C(c2ccccc2[N+](=O)[O-])=C1Nc1ccc(O)c(Cl)c1 [SB415286] | 0.145 | 1.262 | 0.012 | 0.101 | 0.118 | 1.024 | −0.016 | −0.136 | 0.221 | 0.527 | −0.004 | −0.011 | −0.097 | −0.231 | 0.123 | 0.293 | 0.159 | −0.008 | −0.053 | −0.042 | –
